For ten molecules, IC50 results are on record in patent US9321762B2, “Quinazoline compounds, method for preparing the same and use thereof” (DEVELOPMENT CENTER FOR BIOTECHNOLOGY, priority 2013, dated 2016).

Where two headings read alike, the source gives them in different places.

One experiment has as its target T1, B-Raf kinase (Homo sapiens, UniProt P15056).
T1 construct: purchased Upstate Biotechnology
Description: B-Raf kinase assay ([33P] incorporation into MEK1(K97R)). It counts as biochemical. To be noted: class symbols; 8 μM ATP; read-out: IC50 against B-Raf kinase. The method, then:
(§1) Inhibition of kinase activity by a test compound disclosed herein was estimated by quantifying the amount of [^33P] incorporation of a substrate in the presence of the test compound. Standard assay conditions were 5 ng of recombinant B-Raf kinase (Upstate Biotechnology) with 500 ng MEK1(K97R) in assay buffer (8 μM ATP, 0.5 μCi [^33P]ATP (specific activity 3000 Ci/mmol, PerkinElmer), 50 mM Tris/HCl (pH7.5), and 1 mM EGTA, 1 mM Na3VO4, 1% 2-mercaptoethanol, 0.1% Brij 35, and 0.2 mg/ml BSA) in a final volume of 25 μL. Reactions were incubated at 30° C. for 30 min and stopped by adding 3% phosphoric acid, harvested onto a 96-well GF/B UniFilter (PerkinElmer) using a unifilter harvester (PerkinElmer), and counted with a TopCount microplate scintillation counter (PerkinElmer). The IC50 values of inhibitors were determined after carrying out assays at 3-fold serially diluted concentrations of each compound in duplication. The results were analyzed using linear regression software (GraphPad Prism 4; GraphPad Software Inc.).

Another experiment concerns the target T2, B-Raf(V600E) kinase (Homo sapiens, UniProt P15056, V600E).
T2 construct: purchased Upstate Biotechnology
Put plainly: B-Raf(V600E) kinase assay ([33P] incorporation into MEK1(K97R)). In kind it is biochemical. The settings on record: class symbols; 8 μM ATP; read-out: IC50 against B-Raf(V600E) kinase. The method, then:
as §1, with “B-Raf(V600E)” for “B-Raf”, “MEK1 (K97R)” for “MEK1(K97R)”, “[^33P] ATP” for “[^33P]ATP”, “BSA), and the test compound (diluted with 4% DMSO) or DMSO alone (as a control)” for “BSA)”

Another experiment addresses T3, C-Raf kinase (Homo sapiens, UniProt P04049).
T3 construct: purchased Upstate Biotechnology
Description: C-Raf kinase assay ([33P] incorporation into MEK1(K97R)). In kind it is biochemical. The settings on record: class symbols; 8 μM ATP; read-out: IC50 against C-Raf kinase. The method, then:
as §1, with “were 2” for “were 5”, “recombinant C-Raf” for “recombinant B-Raf”, “ng MEK1 (K97R)” for “ng MEK1(K97R)”, “μCi [^33P] ATP” for “μCi [^33P]ATP”, “mg/ml BSA), and the test compound (diluted with 4% DMSO) or DMSO alone (as a control)” for “mg/ml BSA)”

For another experiment, the target named is T4, VEGFR2 kinase (Homo sapiens, UniProt P35968).
T4 construct: VEGFR2 kinase domain alone, Millipore; purchased Millipore
Put plainly: VEGFR2 radiometric kinase assay. In kind it is biochemical. The settings on record: given as bound; 100 μM ATP; read-out: Inhibition activity, IC50 VEGFR2. As for the experimental part:
(§2) The inhibitory activity against VEGFR2 or EGFR was determined by radiometric kinase assay. The experimental condition for VEGFR2 kinase assay was 6.25 ng of recombinant VEGFR2 kinase (VEGFR2 kinase domain alone, Millipore), 5 μg of substrate Poly(Glu-Tyr) (4:1, Sigma), kinase reaction buffer (20 mM MOPS pH 7.0, 1 mM EDTA, 5% glycerol, 0.01% Brij-35, 0.1% β-mercaptoethanol, 1 mg/mL BSA, 100 μM ATP, and 0.1 μCi per well [^33P] ATP (specific activity 3000 Ci/mmol, PerkinElmer)), and the test compound (diluted with 4% DMSO) or DMSO alone (as a control) in a final volume of 25 μL. Reactions were incubated at 30° C. for 30 min and stopped by adding 3% phosphoric acid, harvested onto a 96-well GF/B UniFilter (PerkinElmer) using a unifilter harvester (PerkinElmer), and counted with a TopCount microplate scintillation counter (PerkinElmer).
(§3) Results of inhibition activity against VEGFR2 and EGFR kinases by the selected compounds, which have IC50 values on B-Raf kinase <300 nM, are summarized in Table 6.

A further experiment has as its target T5, EGFR kinase (Homo sapiens, UniProt P00533).
T5 construct: EGFR kinase domain alone, Millipore; purchased Millipore
Put plainly: EGFR radiometric kinase assay. In kind it is biochemical. To be noted: 100 μM ATP, read-out: Inhibition activity, IC50 EGFR. The method, then: as §2
The experimental condition for EGFR kinase assay was 25 ng of EGFR kinase (EGFR kinase domain alone, Millipore), 3 μg of the substrate poly(Glu-Tyr), (Sigma), kinase reaction buffer (10 mM MOPS pH 7.0, 0.3 mM EDTA, 0.5% glycerol, 0.001% Brij-35, 10 mM MnCl2, 0.1 mg/ml BSA, 100 μM ATP, and 0.1 μCi per well [^33P]ATP (specific activity 3000 Ci/mmol, PerkinElmer)), and the test compound (diluted with 4% DMSO) or DMSO (as a control) in a final volume of 25 μL. Reactions were incubated at 30° C. for 30 min and stopped by adding 3% phosphoric acid, harvested onto a 96-well GF/B UniFilter (PerkinElmer) using a unifilter harvester (PerkinElmer), and counted with a TopCount microplate scintillation counter (PerkinElmer).
as §3

Experiment [1] concerns A375 melanoma cells and COLO205 colon cancer cells. Description: Cell proliferation assay (CellTiter-96). The settings on record: Homo sapiens; A375 or COLO205, 72 hours treatment; read-out: Cytotoxicity IC50 for A375 or COLO205. It counts as cell-based. The method, then: The anti-proliferative activities of compounds of formula (I) against B-Raf(V600E) mutant human cancer cell lines, A375 melanoma cells and COLO205 colon cancer cells, were measured using the CellTiter™-96 assay kit (Promega) following the manufacturer's instructions. In brief, the cells were maintained in DMEM containing 10% FCS and incubated at 37° C. in 5% CO2 atmosphere. Cells were plated at a density of 2,000 cells/well on a 96-well plate and incubated for 24 h. Then, these cells were treated with different concentrations of the test compounds and incubated for another 72 hours. At the end of the incubation, CellTiter™-96 Aqueous One Solution Reagent (Promega) was added and incubated for another 4.0 hours. Cell viability was determined by measuring absorbance at 490 nm using EMax® microplate reader (Molecular Devices). Data were processed and analyzed using GraphPad Prism.

T3 sequence (P04049 whole entry): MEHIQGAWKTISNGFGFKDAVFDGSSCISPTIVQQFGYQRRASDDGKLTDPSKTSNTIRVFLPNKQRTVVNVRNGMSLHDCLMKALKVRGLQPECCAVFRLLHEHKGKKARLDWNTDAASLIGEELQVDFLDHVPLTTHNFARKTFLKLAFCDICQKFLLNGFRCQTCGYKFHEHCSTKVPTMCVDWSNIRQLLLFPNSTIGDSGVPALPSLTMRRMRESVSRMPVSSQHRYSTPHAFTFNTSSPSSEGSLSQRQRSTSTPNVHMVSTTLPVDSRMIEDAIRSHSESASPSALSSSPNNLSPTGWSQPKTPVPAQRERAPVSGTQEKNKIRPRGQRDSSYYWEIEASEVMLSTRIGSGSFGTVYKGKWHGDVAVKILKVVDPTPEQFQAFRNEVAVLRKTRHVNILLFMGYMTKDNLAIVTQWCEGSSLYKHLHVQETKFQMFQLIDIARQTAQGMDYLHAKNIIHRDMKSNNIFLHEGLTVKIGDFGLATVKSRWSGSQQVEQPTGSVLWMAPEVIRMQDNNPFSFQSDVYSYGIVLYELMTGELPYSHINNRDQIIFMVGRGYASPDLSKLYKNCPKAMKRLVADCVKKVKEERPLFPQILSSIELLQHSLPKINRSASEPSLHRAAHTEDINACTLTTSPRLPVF
T1 sequence (P15056 whole entry): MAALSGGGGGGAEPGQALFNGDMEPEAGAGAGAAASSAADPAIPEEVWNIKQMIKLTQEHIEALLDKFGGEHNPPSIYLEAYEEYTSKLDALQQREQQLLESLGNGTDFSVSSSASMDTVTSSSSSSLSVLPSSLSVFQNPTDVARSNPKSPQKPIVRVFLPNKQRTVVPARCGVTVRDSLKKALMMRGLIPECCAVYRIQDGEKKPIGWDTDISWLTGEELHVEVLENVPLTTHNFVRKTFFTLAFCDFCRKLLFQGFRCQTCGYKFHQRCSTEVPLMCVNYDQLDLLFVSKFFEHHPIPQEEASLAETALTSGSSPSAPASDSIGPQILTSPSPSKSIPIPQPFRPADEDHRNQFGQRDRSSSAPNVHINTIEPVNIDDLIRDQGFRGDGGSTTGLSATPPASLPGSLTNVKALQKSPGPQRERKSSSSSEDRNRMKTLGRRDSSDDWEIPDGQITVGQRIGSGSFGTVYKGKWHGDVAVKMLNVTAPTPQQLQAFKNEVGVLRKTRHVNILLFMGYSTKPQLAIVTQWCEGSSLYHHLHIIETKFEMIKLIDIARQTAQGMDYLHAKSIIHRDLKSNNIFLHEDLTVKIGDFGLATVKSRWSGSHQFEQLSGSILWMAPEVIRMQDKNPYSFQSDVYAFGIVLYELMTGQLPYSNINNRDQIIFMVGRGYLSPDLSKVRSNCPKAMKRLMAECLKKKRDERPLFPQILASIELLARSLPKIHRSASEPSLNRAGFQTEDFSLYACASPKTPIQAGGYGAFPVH
T2 sequence (P15056 whole entry V600E): as the sequence (P15056 whole entry) above, with V600E counted along it
T5 sequence (P00533 712-979 limits assumed): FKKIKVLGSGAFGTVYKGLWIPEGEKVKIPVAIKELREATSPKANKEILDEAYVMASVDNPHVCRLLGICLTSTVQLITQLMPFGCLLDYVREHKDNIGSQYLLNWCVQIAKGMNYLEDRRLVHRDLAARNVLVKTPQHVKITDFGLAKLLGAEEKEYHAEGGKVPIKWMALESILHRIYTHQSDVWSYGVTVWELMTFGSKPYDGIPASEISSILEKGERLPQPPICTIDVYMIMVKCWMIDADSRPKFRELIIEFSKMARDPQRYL
T4 sequence (P35968 834-1162 limits assumed): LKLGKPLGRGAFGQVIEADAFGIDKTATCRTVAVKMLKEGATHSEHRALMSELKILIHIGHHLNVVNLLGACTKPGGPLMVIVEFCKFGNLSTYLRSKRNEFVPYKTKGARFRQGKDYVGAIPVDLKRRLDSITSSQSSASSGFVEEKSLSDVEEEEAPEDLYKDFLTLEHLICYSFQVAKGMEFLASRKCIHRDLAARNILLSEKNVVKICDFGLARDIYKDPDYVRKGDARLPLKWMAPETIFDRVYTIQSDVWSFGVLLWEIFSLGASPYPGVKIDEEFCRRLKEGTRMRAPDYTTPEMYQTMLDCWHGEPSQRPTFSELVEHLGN

Broadly, the IC50 is the point on the concentration scale where inhibition reaches its midpoint. With `CCCS(=O)(=O)Nc1ccc(F)c(Nc2ncnc3ccc(-c4cncc(F)c4)cc23)c1F` [compound 46, N-(2,4-difluoro-3-(6-(5-fluoropyridin-3-yl)quinazolin-4-ylamino)phenyl)propane-1-sulfonamide], the concentration for half-maximal inhibition (IC50) is < 0.3 µM at B-Raf kinase; < 0.3 µM at B-Raf(V600E) kinase; < 0.3 µM at C-Raf kinase; > 3 µM at VEGFR2 kinase; > 3 µM at EGFR kinase (given as bound); < 2 µM in experiment [1].
In the case of `O=S(=O)(Nc1ccc(F)c(Nc2ncnc3ccc(-c4cccnc4F)cc23)c1F)c1ccccc1` [compound 21, N-(2,4-difluoro-3-(6-(2-fluoropyridin-3-yl)quinazolin-4-ylamino)phenyl)benzenesulfonamide], the 50% inhibitory concentration (IC50) on B-Raf kinase is < 0.3 µM; on B-Raf(V600E) kinase, < 0.3 µM; on C-Raf kinase, < 0.3 µM; on VEGFR2 kinase, > 3 µM; at EGFR kinase (class symbols) it was 1 to 3 µM; in experiment [1], < 2 µM.
`CCCS(=O)(=O)Nc1ccc(F)c(Nc2ncnc3ccc(-c4cccc(F)n4)cc23)c1F` [compound 36, N-(2,4-difluoro-3-(6-(6-fluoropyridin-2-yl)-quinazolin-4-ylamino)phenyl)propane-1-sulfonamide]: the IC50 at B-Raf kinase was < 0.3 µM; on B-Raf(V600E) kinase, < 0.3 µM; at C-Raf kinase, 0.3 to 1 µM; on VEGFR2 kinase, > 3 µM; at EGFR kinase (class symbols), 1 to 3 µM; in experiment [1], < 2 µM.
In the case of `CCCS(=O)(=O)Nc1ccc(F)c(Nc2ncnc3cc(F)c(-c4ccncc4)cc23)c1F` [compound 15, N-(2,4-difluoro-3-(7-fluoro-6-(pyridin-4-yl)quinazolin-4-ylamino)phenyl)propane-1-sulfonamide], the concentration for half-maximal inhibition (IC50) was < 0.3 µM on B-Raf kinase; < 0.3 µM at B-Raf(V600E) kinase; < 0.3 µM on C-Raf kinase; > 3 µM on VEGFR2 kinase; 1 to 3 µM at EGFR kinase (class symbols); < 2 µM in experiment [1].
Take `O=S(=O)(CCCF)Nc1ccc(F)c(Nc2ncnc3ccc(-c4cccnc4F)cc23)c1F` [compound 44, N-(2,4-difluoro-3-(6-(2-fluoropyridin-3-yl)quinazolin-4-ylamino)phenyl)-3-fluoropropane-1-sulfonamide]: the IC50 at B-Raf kinase is < 0.3 µM; at B-Raf(V600E) kinase it was < 0.3 µM; on C-Raf kinase, < 0.3 µM; on VEGFR2 kinase, > 3 µM; on EGFR kinase (given as bound) it was > 3 µM; in experiment [1], < 2 µM.
With `CCCS(=O)(=O)Nc1ccc(F)c(Nc2ncnc3ccc(-c4ccc(OC)nc4)cc23)c1F` [compound 27, N-(2,4-difluoro-3-(6-(6-methoxypyridin-3-yl)quinazolin-4-ylamino)phenyl)propane-1-sulfonamide], the IC50 on B-Raf kinase is 0.3 to 1 µM; on B-Raf(V600E) kinase it was < 0.3 µM; at C-Raf kinase, < 0.3 µM; at VEGFR2 kinase it was > 3 µM; at EGFR kinase (class symbols), 1 to 3 µM; in experiment [1], < 2 µM.
Take `CCCS(=O)(=O)Nc1ccc(F)c(Nc2ncnc3ccc(-c4cccc(C(F)(F)F)n4)cc23)c1F` [compound 62, N-(2,4-difluoro-3-(6-(6-(trifluoromethyl)pyridin-2-yl)quinazolin-4-ylamino)phenyl)propane-1-sulfonamide]: the half-maximal inhibitory concentration (IC50) at B-Raf kinase is < 0.3 µM; at B-Raf(V600E) kinase it was < 0.3 µM; on C-Raf kinase, < 0.3 µM; at VEGFR2 kinase it was > 3 µM; at EGFR kinase (class symbols), 0.3 to 1 µM; in experiment [1], < 2 µM.
Consider `CCCS(=O)(=O)Nc1ccc(F)c(Nc2ncnc3ccc(-c4cnccc4F)cc23)c1F` [compound 66, N-(2,4-difluoro-3-(6-(4-fluoropyridin-3-yl)quinazolin-4-ylamino)phenyl)propane-1-sulfonamide], for which the IC50 at B-Raf kinase was < 0.3 µM; on B-Raf(V600E) kinase, < 0.3 µM; at C-Raf kinase it was < 0.3 µM; on VEGFR2 kinase, > 3 µM; on EGFR kinase (given as bound), > 3 µM; in experiment [1], < 2 µM.
Turning to `CCCS(=O)(=O)Nc1ccc(F)c(Nc2ncnc3cc(OCCN4CCOCC4)c(-c4cccnc4F)cc23)c1F` [compound 8, N-(2,4-difluoro-3-(6-(2-fluoropyridin-3-yl)-7-(2-morpholinoethoxy)quinazolin-4-ylamino)phenyl)propane-1-sulfonamide], the concentration for half-maximal inhibition (IC50) is < 0.3 µM at B-Raf kinase; < 0.3 µM on B-Raf(V600E) kinase; 0.3 to 1 µM on C-Raf kinase; > 3 µM on VEGFR2 kinase; > 3 µM at EGFR kinase (given as bound); < 2 µM in experiment [1].
In the case of `CCCS(=O)(=O)Nc1ccc(F)c(Nc2ncnc3ccc(-c4cccc(C#N)n4)cc23)c1F` [compound 63, N-(3-(6-(6-cyanopyridin-2-yl)quinazolin-4-ylamino)-2,4-difluorophenyl)propane-1-sulfonamide], the IC50 on B-Raf kinase is < 0.3 µM; on B-Raf(V600E) kinase, < 0.3 µM; on C-Raf kinase it was < 0.3 µM; at VEGFR2 kinase, > 3 µM; at EGFR kinase (class symbols), 0.3 to 1 µM; in experiment [1], < 2 µM.
